# Laboratory results reported in PubChem BioAssay (NCI).
#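 Dose response: 5 concentrations. Exposure: 48 h. Format: 96-well plates. Endpoint: linear interpolation; highest concentration if not reached. The concentration for 50% growth inhibition is given as GI50. TGI is the concentration that stops growth completely.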
# Assays:
# Assay in all cases: NCI-60 cell line screen, 48 h
# [1] = tested on: SW-620 colon
# [2] = tested on: HL-60(TB) leukemia
# [3] = tested on: KM12 colon
# [4] = tested on: NCI/ADR-RES ovarian
# [5] = tested on: T-47D breast
# [6] = tested on: SF-268 CNS
# [7] = tested on: MALME-3M melanoma
# [8] = tested on: MOLT-4 leukemia
# [9] = tested on: SNB-19 CNS
# [10] = tested on: K-562 leukemia
Structure (SMILES),GI50 [1] [µM],TGI [1] [µM],GI50 [2] [µM],TGI [2] [µM],GI50 [3] [µM],TGI [3] [µM],GI50 [4] [µM],TGI [4] [µM],GI50 [5] [µM],TGI [5] [µM],GI50 [6] [µM],TGI [6] [µM],GI50 [7] [µM],TGI [7] [µM],GI50 [8] [µM],TGI [8] [µM],GI50 [9] [µM],TGI [9] [µM],GI50 [10] [µM],TGI [10] [µM]
Cc1[nH]n(-c2cccc(Cl)c2)c(=O)c1/C=C1\C=c2ccccc2=CC1=O,> 100,> 100,> 100,> 100,> 100,> 100,> 100,> 100,> 100,> 100,97.1,> 100,29.2,> 100,> 100,> 100,45.7,> 100,44.7,> 100
Cc1ccc(S(=O)(=O)CC2(Br)CCc3ccccc3C2=O)cc1 (stereo unspecified),,> 100,,87.3,,> 100,,> 100,,,,36.5,,68.6,,> 100,,> 100,,> 100
COC(CC1(OC)OC(=O)C=C1N)OC (stereo unspecified),,> 100,,> 100,,> 100,,,,,,> 100,,> 100,,> 100,,> 100,,> 100
CCCCCCSc1nc(COC(=O)NC)c(COC(=O)NC)n1C,,> 100,,> 100,,> 100,,> 100,,> 100,,> 100,,,,> 100,,> 100,,> 100
CC1CC(c2ccc(Cl)c(Cl)c2)=Nc2ccccc2S1 (stereo unspecified),,> 100,,> 100,,> 100,,,,,,> 100,,> 100,,> 100,,> 100,,> 100
NC(=O)c1cc([N+](=O)[O-])cc([N+](=O)[O-])c1,,> 100,,> 100,,> 100,,,,,,> 100,,> 100,,> 100,,> 100,,> 100
COC(=O)C1=C(\O)C[C@@]2(C)CC[C@@H](C(=O)OC)C2C/C=C\1C(=O)OC (stereo partly specified),,> 100,,> 100,,> 100,,,,,,> 100,,> 100,,> 100,,> 100,,
Cc1cc(C#Cc2ccccc2)ccc1-n1c(/C=C/c2cc(O)ccc2O)nc2ccccc2c1=O,1.71,3.51,,,1.65,3.07,2.06,5.22,1.14,3.67,1.31,3.07,1.5,3.72,1.14,3.97,1.62,3.18,1.42,3.82
C=C1C(=O)C2(C)OC2(C)C1C(=O)O (stereo unspecified),,> 100,,> 100,,> 100,,> 100,,> 100,,> 100,,,,,,> 100,,> 100
O=C(/C=C/c1ccc(O)cc1)c1cc(Cl)ccc1O,,> 100,,45.8,,> 100,,,,,,> 100,,> 100,,55.8,,> 100,,71.3
C#Cc1ccc(-n2c(/C=C/c3ccc4ccccc4c3)nc3ncccc3c2=O)cc1,,,1.66,8.83,2.95,> 100,3.29,> 100,3.9,> 100,2.6,> 100,4.97,> 100,2,> 100,,,2.43,> 100
O=C(CSc1ncc(-c2ccccc2)n1-c1ccccc1)Nc1ccc(-c2nc3ccccc3s2)cc1,,,> 100,> 100,,,,,4.51,> 100,3.5,> 100,,,,,15.1,> 100,> 100,> 100
c1ccc2c(c1)N=C(c1ccc3ccccc3c1)CC(c1cccc3ccccc13)S2 (stereo unspecified),,> 100,,47.1,,> 100,,,,,,> 100,,> 100,,44.2,,> 100,,54
N#CC1C(=O)NC(=O)C1=O (stereo unspecified),,> 100,,,,> 100,,,,,,> 100,,> 100,,> 100,,> 100,,> 100
O=C1C(Br)=CC2(C=C1Br)CCNc1c(O)c3c4c(c12)=NCCC=4C=N3,,0.105,,,,1.61,,0.58,,0.165,,1.18,,0.0946,,0.11,,3.97,,0.0921
CCCCCCCCCCCC(=O)OC(COC(N)=O)COc1ccc(Cl)cc1 (stereo unspecified),,63,,33.3,,61.1,,,,,,42.5,,48.3,,44.3,,83,,35.1
FC(F)(F)c1ccc(NCc2nc3ccccc3[nH]2)cc1,35.7,> 100,12.1,38.5,29.7,87.7,21.9,67.2,26.5,80.6,40.8,> 100,23.9,69.5,21.6,63,34.3,> 100,,
COC(=O)NC(=O)c1cn(C2CCCCC2)c(=O)[nH]c1=O,,> 100,,> 100,,> 100,,,,,,> 100,,> 100,,> 100,,> 100,,> 100
O=C1N=C(Nc2nc(-c3csc(NC4=NC(=O)/C(=C\c5ccc(Cl)cc5)S4)n3)cs2)S/C1=C/c1ccc(Cl)cc1,39,> 50,12.6,33.8,10.1,35.6,18.1,> 50,18.8,> 50,8.29,> 50,,,1.69,> 50,12,> 50,7.23,> 50
Cc1cn2c(/C=C3/C(=O)Nc4ccc(Cl)cc43)c(C)nc2s1,0.22,> 67.7,,,1.17,24,0.0211,,4.09,> 75,12.5,> 100,1.22,,0.0776,> 100,,> 42.4,,> 100

Structure (SMILES),GI50 [1] [µM],TGI [1] [µM],GI50 [2] [µM],TGI [2] [µM],GI50 [3] [µM],TGI [3] [µM],GI50 [4] [µM],TGI [4] [µM],GI50 [5] [µM],TGI [5] [µM],GI50 [6] [µM],TGI [6] [µM],GI50 [7] [µM],TGI [7] [µM],GI50 [8] [µM],TGI [8] [µM],GI50 [9] [µM],TGI [9] [µM],GI50 [10] [µM],TGI [10] [µM]
COc1ccc2c(c1)N(CCO)C1=C(C(=O)OC1)C2c1ccc(OC)c(OC)c1 (stereo unspecified),3.21,> 100,2.04,5.51,1.43,14.7,4.38,45.1,> 100,> 100,4.5,> 100,,,4.75,> 100,4.54,> 100,1.26,> 100
O=C(O)c1cn(C2CC2)c2cc(N3CCN(Cc4ccc5ccccc5c4O)CC3)c(F)cc2c1=O,,,> 100,> 100,,,,,> 100,> 100,8.13,> 100,,,,,29.8,> 100,,
CC1(C)CC(N2CCN(C3CC(C)(C)NC(C)(C)C3)CC2)CC(C)(C)N1,,> 100,,> 100,,> 100,,,,,,> 100,,,,> 100,,> 100,,> 100
NCC1(N2CCOCC2)C2CCCC21CNc1ccccc1 (stereo unspecified),,> 100,,> 100,,> 100,,,,,,> 100,,> 100,,> 100,,> 100,,> 100
O=C1c2ccccc2C(=O)c2c1ccc1c2N=C(c2ccc(Br)cc2)CC(c2cccc3ccccc23)N1 (stereo unspecified),,> 100,,> 100,,> 100,,,,,,> 100,,> 100,,,,> 100,,> 100
N#Cc1c(N)c(C#N)c2c(c1-c1ccc(Cl)cc1)COc1ccc(F)cc1-2,22.5,> 50,> 50,> 50,12.3,> 50,30.6,> 50,> 50,> 50,,,,,> 50,> 50,> 50,> 50,> 50,> 50
COc1ccc(/C=C2/CN(CCC#N)C/C(=C\c3ccc(OC)cc3)C2=O)cc1,2.15,6.72,,,1.72,3.83,3.73,> 100,3.76,> 100,3.27,36.7,2.95,8.58,3.69,> 100,4.07,> 100,3.28,> 100
NC(=O)c1ncn(Cc2ccccc2)c1CNC(N)=S,,> 100,,> 100,,> 100,,,,,,> 100,,,,> 100,,> 100,,> 100
COc1cc(Cn2c(SCC(=O)Nc3ccc(Cl)cc3)nc3ccccc3c2=O)cc(OC)c1OC,31.8,> 100,> 100,> 100,32.3,> 100,8.38,27.6,2.16,8.21,6.61,24.8,,,> 100,> 100,6.8,26,,
CC1(C)OC(=O)C(=Cc2ccc([N+](=O)[O-])s2)C(=O)O1,,4.1,,5.59,,29,,39.8,,38,,29.5,,34.2,,24.6,,31.6,,
O=C(NC1C(=O)NNC1c1ccccc1Cl)c1ccccc1 (stereo unspecified),,> 100,,> 100,,> 100,,,,,,> 100,,> 100,,> 100,,> 100,,> 100
CN1CCN(c2ccc(Nc3ncc4cc5n(c4n3)C3(CCCCC3)CNC5=O)nc2)CC1,0.166,11.8,0.0651,3.04,1.32,21.9,5.77,26,4.15,> 100,1.46,4.94,0.866,15.4,0.279,3.58,,,2.17,18.4
ClCCCCOC1CCCCO1 (stereo unspecified),,> 100,,> 100,,> 100,,,,,,> 100,,> 100,,> 100,,> 100,,
Cn1cnc([N+](=O)[O-])c1Sc1nc2ccc([N+](=O)[O-])cc2[nH]1,,> 100,,> 100,,> 100,,,,,,53.1,,,,47.7,,> 100,,69.2
CC(C)COC(c1ccc2c(c1)OCO2)C(C)Br (stereo unspecified),,> 100,,,,55,,90.2,,,,59.7,,36.1,,,,> 100,,> 100
COC1=CC2CCN3Cc4cc5c(cc4C(C1O)C23)OCC5 (stereo unspecified),5.21,> 100,4.75,> 25.7,3.06,30.3,3,18.4,1.33,6.51,4.57,> 100,,,2.11,> 100,0.992,> 24.5,3.51,> 100
Cc1ccc(NC(=O)C(=O)CC(=O)c2ccccc2)cc1C,,> 100,,,,> 100,,,,,,> 100,,> 100,,,,> 100,,
Nc1ccc(C(=O)Nc2ccccc2N)cc1,,> 100,,17.6,,> 100,,19.6,,,,> 100,,30.3,,73.7,,> 100,,> 100
Fc1ccc(-c2nn3c(COc4ccc(Cl)cc4Cl)nnc3s2)cc1Oc1ccccc1,36.9,> 100,,,28.9,91.2,,,11.6,25.7,29.8,87.8,17,35.2,7.08,27.8,13.3,26.1,21.2,> 100
CNCCNc1nc2ccccc2c2c(=O)c3cccc(C)c3sc12,0.915,1.92,1.06,2.2,1.11,2.88,1.76,7.35,0.876,2.25,3.53,11.4,5.16,11.7,1.28,3.42,,,1.04,2.33
